# Columns and labels:
# [1] = molecular target: T1, Monoglyceride lipase (Homo sapiens) (UniProt Q99685); test: Inhibition of MAGL (unknown origin) at […] after 10 mins relative to control
# T1 sequence (whole entry): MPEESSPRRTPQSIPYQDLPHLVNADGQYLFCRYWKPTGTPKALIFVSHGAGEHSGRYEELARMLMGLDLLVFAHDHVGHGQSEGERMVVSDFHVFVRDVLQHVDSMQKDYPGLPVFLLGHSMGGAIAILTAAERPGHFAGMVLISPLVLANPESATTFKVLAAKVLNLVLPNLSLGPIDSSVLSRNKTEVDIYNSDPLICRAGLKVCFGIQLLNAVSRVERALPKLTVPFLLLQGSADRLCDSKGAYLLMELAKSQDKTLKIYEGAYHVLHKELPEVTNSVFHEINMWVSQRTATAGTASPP
# [2] = molecular target: T1, Monoglyceride lipase (Homo sapiens); conditions: 2 mM
# Description: Inhibition of MAGL (unknown origin) at 2 mM after 10 mins relative to control
# [3] = molecular target: T1, Monoglyceride lipase (Homo sapiens); test: Inhibition of MAGL (unknown origin) at 125 uM after 10 mins relative to control
# [4] = molecular target: T1, Monoglyceride lipase (Homo sapiens); test: Inhibition of MAGL (unknown origin) at 250 uM after 10 mins relative to control
# [5] = molecular target: T1, Monoglyceride lipase (Homo sapiens); test: Inhibition of MAGL (unknown origin) at 500 uM after 10 mins relative to control
# [6] = molecular target: T1, Monoglyceride lipase (Homo sapiens); test: (§1) Inhibition of MAGL (unknown origin) after 10 mins
# [7] = molecular target: T2, Monoglyceride lipase (Homo sapiens, UniProt Q99685); test: as §1
# T2 sequence (Q99685 whole entry): T1 sequence (whole entry)
structure (smiles),measurement,setting,value
CC1(C)OC(=O)C=C[C@]2(C)[C@H]3CC[C@@]4(C)[C@H](c5ccoc5)OC(=O)[C@H]5O[C@]54[C@]3(C)C(=O)C[C@@H]12,inhibition,[1],4%
O=C(Oc1ccc([N+](=O)[O-])cc1)N1CCC(C(O)(c2ccc3c(c2)OCO3)c2ccc3c(c2)OCO3)CC1,inhibition,[2],94%
Cc1coc2c1C(=O)C(=O)c1c-2ccc2c(C)cccc12,inhibition,[3],12%
same,inhibition,[4],15%
same,inhibition,[1],58%
same,inhibition,[5],31%
CC1(C)CC[C@]2(C(=O)O)CC[C@]3(C)C(=CC[C@@H]4[C@@]5(C)CC[C@H](O)C(C)(C)[C@@H]5CC[C@]43C)[C@@H]2C1,inhibition,[1],1%
Cc1coc2c1C(=O)C(=O)c1c-2ccc2c1CCCC2(C)C [TANSHINONE IIA],inhibition,[3],72%
same,inhibition,[4],79%
same,inhibition,[1],95%
same,inhibition,[6],Dose-dependent effect
same,IC50,[7],48 µM
same,inhibition,[5],85%
O=c1c(-c2ccc(O)cc2)coc2c([C@@H]3O[C@H](CO)[C@@H](O)[C@H](O)[C@H]3O)c(O)ccc12,inhibition,[1],52%

# Reference: ChEMBL document CHEMBL3596143, “Identification of tanshinone IIA as a natural monoacylglycerol lipase inhibitor by combined in silico and in vitro approach” (Medchemcomm, 2014)
